34 molecules from patent US9321756B2, “Azole compounds as PIM inhibitors” (priority 2011, dated 2016) can be followed below.

Test [1] concerns the target full length recombinant Pim-1 (Homo sapiens (Human), UniProt P11309). As to the kind of experiment: Pim enzyme assay (HTRF, phosphorylation of biotinylated-BAD (S112) peptide), Pim-1. The format is biochemical.
Test [2] has as its target full length recombinant Pim-2 (Homo sapiens (Human), UniProt Q9P1W9). The experiment in a line: Pim enzyme assay (HTRF, phosphorylation of biotinylated-BAD (S112) peptide), Pim-2. As to conditions: read-out: Pim2_IC50. In kind it is biochemical. (In general: TR-FRET usually uses a lanthanide donor and a delayed reading to cut background.)
Where [3] appears, read: Pim-1 enzyme assay, read-out: Pim_1_IC50.
Where [4] appears, read: HTRF, 10-point curve, high dose 1 uM, 2 h at RT, read-out: Pim_1_IC50.

Molecules are shown by their SMILES. Where two headings read alike, the source gives them in different places.

Chain of full length recombinant Pim-1 (P11309 whole entry): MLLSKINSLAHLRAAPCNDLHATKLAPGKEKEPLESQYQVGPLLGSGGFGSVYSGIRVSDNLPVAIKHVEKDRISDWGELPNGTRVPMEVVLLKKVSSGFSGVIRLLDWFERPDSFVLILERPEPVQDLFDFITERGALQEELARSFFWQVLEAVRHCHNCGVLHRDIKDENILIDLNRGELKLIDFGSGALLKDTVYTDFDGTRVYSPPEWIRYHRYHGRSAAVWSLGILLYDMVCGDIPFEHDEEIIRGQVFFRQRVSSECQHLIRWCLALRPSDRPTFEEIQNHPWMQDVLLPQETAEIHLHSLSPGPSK
Chain of full length recombinant Pim-2 (Q9P1W9 whole entry): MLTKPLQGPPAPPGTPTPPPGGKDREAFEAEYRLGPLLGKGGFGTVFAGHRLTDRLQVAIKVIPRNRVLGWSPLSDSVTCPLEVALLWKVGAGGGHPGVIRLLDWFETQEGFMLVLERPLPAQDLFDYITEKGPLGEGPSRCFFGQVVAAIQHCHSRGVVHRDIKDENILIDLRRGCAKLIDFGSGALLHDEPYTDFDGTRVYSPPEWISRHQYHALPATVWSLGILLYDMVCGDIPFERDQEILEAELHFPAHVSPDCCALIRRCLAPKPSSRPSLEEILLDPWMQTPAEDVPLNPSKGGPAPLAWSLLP

Turning to `Nc1nnc(-c2ccc3[nH]cc(-c4ccccc4F)c3n2)o1` [Example 9, 5-(3-(2-fluorophenyl)-1H-pyrrolo[3,2-b]pyridin-5-yl)-1,3,4-oxadiazol-2-amine], the IC50 amounted to 0.644 µM in test [1] (setting [3]) and 0.717 µM in test [2] (Pim-2 enzyme assay).

For the molecule `c1ccc(Nc2nnc(-c3ccc4[nH]cc(-c5cncc(C6CC6)n5)c4c3)o2)cc1` [Example 40, 5-(3-(6-Cyclopropylpyrazin-2-yl)-1H-indol-5-yl)-N-phenyl-1,3,4-oxadiazol-2-amine], the values for the IC50 in test [1] (setting [3]) and in test [2] (Pim-2 enzyme assay) were 0.105 µM and 0.215 µM, respectively.

On to `CC(C)c1ccnc(-c2c[nH]c3ccc(-c4nnc(NCC#N)o4)cc23)n1` [Example 45, 2-((5-(3-(4-isopropylpyrimidin-2-yl)-1H-indol-5-yl)-1,3,4-oxadiazol-2-yl)amino)acetonitrile], for which the IC50 in test [1] (setting [3]) was 0.00383 µM; in test [2] (Pim-2 enzyme assay) it was 0.00283 µM.

As to `CC(C)Nc1nnc(-c2ccc3[nH]cc(-c4nc(C(=O)O)cc(C5CC5)n4)c3c2)o1` [Example 47, 6-cyclopropyl-2-(5-(5-(isopropylamino)-1,3,4-oxadiazol-2-yl)-1H-indol-3-yl)pyrimidine-4-carboxylic acid], the values for the IC50 in test [1] (setting [3]) and in test [2] (Pim-2 enzyme assay) were 0.0201 µM and 0.00116 µM, respectively.

As to `CC(C)Nc1nnc(-c2ccc3[nH]cc(-c4nc(C(N)=O)cc(C5CC5)n4)c3c2)o1` [Example 48, 6-cyclopropyl-2-(5-(5-(isopropylamino)-1,3,4-oxadiazol-2-yl)-1H-indol-3-yl)pyrimidine-4-carboxamide], the IC50 in test [1] (setting [3]) is 0.00253 µM.

As for `CC(C)Cc1nnc(-c2ccc3[nH]cc(-c4nccc(C5CC5)n4)c3c2)o1` [Example 51, 2-(3-(4-cyclopropylpyrimidin-2-yl)-1H-indol-5-yl)-5-isobutyl-1,3,4-oxadiazole], the IC50 in test [1] (setting [3]) was determined as 0.0925 µM; in test [2] (Pim-2 enzyme assay) it was 0.0308 µM.

As for `CC(C)(C)Nc1nnc(-c2ccc3[nH]cc(-c4nccc(C5CC5)n4)c3c2)o1` [Example 54, N-tert-butyl-5-(3-(4-cyclopropylpyrimidin-2-yl)-1H-indol-5-yl)-1,3,4-oxadiazol-2-amine 2,2,2-trifluoroacetate], the IC50 in test [1] (setting [3]) is 0.00158 µM; in test [2], 0.00239 µM.

As to `COc1nc(-c2c[nH]c3ccc(-c4nnc(NC(C)(C)C)o4)cc23)ncc1F` [Example 55, N-tert-butyl-5-(3-(5-fluoro-4-methoxypyrimidin-2-yl)-1H-indol-5-yl)-1,3,4-oxadiazol-2-amine 2,2,2-trifluoroacetate], the IC50 in test [1] turned out to be 0.00877 µM; in test [2] (Pim-2 enzyme assay), 0.0287 µM.

On to `CC(C)(C)Nc1nnc(-c2ccc3[nH]cc(-c4ncc(F)c(C5CC5)n4)c3c2)o1` [Example 56, N-tert-butyl-5-(3-(4-cyclopropyl-5-fluoropyrimidin-2-yl)-1H-indol-5-yl)-1,3,4-oxadiazol-2-amine], for which the IC50 in test [1] (setting [3]) came out at 0.00253 µM.

Turning to `CCc1nc(-c2c[nH]c3ccc(-c4nnc(NC(C)(C)C)o4)cc23)ncc1F` [Example 57, N-tert-butyl-5-(3-(4-ethyl-5-fluoropyrimidin-2-yl)-1H-indol-5-yl)-1,3,4-oxadiazol-2-amine], the IC50 in test [1] (setting [3]) stood at 0.00579 µM; in test [2] (Pim-2 enzyme assay) it was 0.021 µM.

For `COc1ccnc(-c2c[nH]c3ccc(-c4nnc(NC(C)C)o4)cc23)n1` [Example 59, N-isopropyl-5-(3-(4-methoxypyrimidin-2-yl)-1H-indol-5-yl)-1,3,4-oxadiazol-2-amine], the IC50 in test [1] (setting [3]) amounted to 0.0304 µM; in test [2] (Pim-2 enzyme assay), 0.0167 µM.

Regarding `CC(C)Nc1nnc(-c2ccc3[nH]cc(-c4nccc(OC(C)C)n4)c3c2)o1` [Example 60, 5-(3-(4-isopropoxypyrimidin-2-yl)-1H-indol-5-yl)-N-isopropyl-1,3,4-oxadiazol-2-amine], the results for the IC50 in test [1] (setting [3]) and in test [2] (Pim-2 enzyme assay) were 0.0201 µM and 0.0135 µM, respectively.

As to `CC(C)Nc1nnc(-c2ccc3[nH]cc(-c4nccc(N5CCN(C)C(=O)C5)n4)c3c2)o1` [Example 61, 4-(2-(5-(5-(isopropylamino)-1,3,4-oxadiazol-2-yl)-1H-indol-3-yl)pyrimidin-4-yl)-1-methylpiperazin-2-one], the IC50 in test [1] (setting [3]) is 0.0459 µM; in test [2] (Pim-2 enzyme assay) it was 0.0468 µM.

`CC(C)Nc1nnc(-c2ccc3[nH]cc(-c4nccc(OC5CCCN(C)C5)n4)c3c2)o1` (centres unmarked) [Example 62, N-isopropyl-5-(3-(4-((1-methylpiperidin-3-yl)oxy)pyrimidin-2-yl)-1H-indol-5-yl)-1,3,4-oxadiazol-2-amine 2,2,2-trifluoroacetate]: the IC50 in test [1] (setting [3]) was found to be 0.0695 µM; in test [2] it was 0.207 µM.

As for `CC(C)Oc1cccc(-c2c[nH]c3ccc(-c4nc(N)ns4)cc23)n1` [Example 63, 5-(3-(6-isopropoxypyridin-2-yl)-1H-indol-5-yl)-1,2,4-thiadiazol-3-amine], the IC50 in test [1] (setting [3]) came to 0.551 µM; in test [2] (Pim-2 enzyme assay) it was 0.4 µM.

As for `CC(C)Oc1cccc(-c2c[nH]c3ccc(-c4nsc(N)n4)cc23)n1` [Example 65, 3-(3-(6-isopropoxypyridin-2-yl)-1H-indol-5-yl)-1,2,4-thiadiazol-5-amine], the IC50 in test [1] (setting [3]) was 0.335 µM.

`CC(C)Nc1cncc(-c2c[nH]c3ccc(-c4nsc(N)n4)cc23)n1` [Example 66, 3-(3-(6-(isopropylamino)pyrazin-2-yl)-1H-indol-5-yl)-1,2,4-thiadiazol-5-amine]: the IC50 in test [1] (setting [3]) was 0.0201 µM; in test [2] (Pim-2 enzyme assay), 0.649 µM.

`CC(C)Nc1cncc(-c2c[nH]c3ccc(-c4nc(N)no4)cc23)n1` [Example 67, 5-(3-(6-(isopropylamino)pyrazin-2-yl)-1H-indol-5-yl)-1,2,4-oxadiazol-3-amine]: the IC50 amounted to 0.00579 µM in test [1] (setting [3]) and 0.0589 µM in test [2].

With `CC(C)Oc1cccc(-c2c[nH]c3ccc(-c4nc(N)no4)cc23)n1` [Example 68, 5-(3-(6-isopropoxypyridin-2-yl)-1H-indol-5-yl)-1,2,4-oxadiazol-3-amine], the IC50 in test [1] (setting [3]) was 0.0427 µM; in test [2], 0.0797 µM.

For `CC(C)Oc1cccc(-c2c[nH]c3ccc(-c4noc(N)n4)cc23)n1` [Example 69, 3-(3-(6-isopropoxypyridin-2-yl)-1H-indol-5-yl)-1,2,4-oxadiazol-5-amine], the IC50 in test [1] (setting [3]) came to 0.241 µM; in test [2] (Pim-2 enzyme assay), 0.668 µM.

As for `CC(C)Nc1cncc(-c2c[nH]c3ccc(-c4noc(N)n4)cc23)n1` [Example 70, 3-(3-(6-(isopropylamino)pyrazin-2-yl)-1H-indol-5-yl)-1,2,4-oxadiazol-5-amine], the IC50 in test [1] (setting [3]) was determined as 0.0304 µM; in test [2] (Pim-2 enzyme assay), 0.362 µM.

As for `CC(C)Oc1cncc(-c2c[nH]c3ccc(-c4noc(N)n4)cc23)n1` [Example 71, 3-(3-(6-isopropoxypyrazin-2-yl)-1H-indol-5-yl)-1,2,4-oxadiazol-5-amine], the figures for the IC50 in test [1] (setting [3]) and in test [2] (Pim-2 enzyme assay) were 0.0695 µM and 0.538 µM, respectively.

Regarding `CNc1nc(-c2ccc3[nH]cc(-c4cncc(OC(C)C)n4)c3c2)no1` [Example 72, 3-(3-(6-isopropoxypyrazin-2-yl)-1H-indol-5-yl)-N-methyl-1,2,4-oxadiazol-5-amine], the IC50 in test [1] (setting [3]) came out at 0.0695 µM.

For `CC(C)Nc1nc(-c2ccc3[nH]cc(-c4cncc(OC(C)C)n4)c3c2)no1` [Example 73, 3-(3-(6-isopropoxypyrazin-2-yl)-1H-indol-5-yl)-N-isopropyl-1,2,4-oxadiazol-5-amine], the IC50 was 0.0459 µM in test [1] (setting [3]) and 0.504 µM in test [2].

On to `CC(=O)Nc1nc(-c2ccc3[nH]cc(-c4cncc(OC(C)C)n4)c3c2)no1` [Example 74, N-(3-(3-(6-isopropoxypyrazin-2-yl)-1H-indol-5-yl)-1,2,4-oxadiazol-5-yl)acetamide], for which the IC50 in test [1] (setting [3]) was 0.186 µM; in test [2] (Pim-2 enzyme assay), over 1 µM.

`Nc1nnc(-c2ccc3[nH]cc(-c4cc(C(F)(F)F)ncn4)c3c2)o1` [Example 95, 5-(3-(6-(trifluoromethyl)-4-pyrimidinyl)-1H-indol-5-yl)-1,3,4-oxadiazol-2-amine]: the IC50 was over 1 µM in test [1] (setting [3]) and 0.838 µM in test [2] (Pim-2 enzyme assay).

For the molecule `CC(C)Cn1cc(-c2c[nH]c3ccc(-c4nnc(N)o4)nc23)cn1` [Example 127, 5-(3-(1-(2-methylpropyl)-1H-pyrazol-4-yl)-1H-pyrrolo[3,2-b]pyridin-5-yl)-1,3,4-oxadiazol-2-amine], the IC50 in test [1] (setting [3]) was determined as 0.389 µM.

Turning to `CNc1nnc(-c2ccc3[nH]cc(-c4nccc(-c5ccccc5)n4)c3c2)s1` [Example 131, N-methyl-5-(3-(4-phenyl-2-pyrimidinyl)-1H-indol-5-yl)-1,3,4-thiadiazol-2-amine], the IC50 in test [1] (setting [3]) amounted to 0.0882 µM; in test [2] (Pim-2 enzyme assay) it was 0.0358 µM.

As to `CCN(C)c1cnc(-c2c[nH]c3ccc(-c4nnc(N)s4)cc23)cn1` [Example 188, 5-(5-(5-amino-1,3,4-thiadiazol-2-yl)-1H-indol-3-yl)-N-ethyl-N-methyl-2-pyrazinamine], the IC50 in test [1] (setting [3]) came to 0.398 µM; in test [2] (Pim-2 enzyme assay), 1.22 µM.

Regarding `CNc1nnc(-c2ccc3[nH]cc(-c4ccccc4)c3c2)s1` [Example 223, N-methyl-5-(3-phenyl-1H-indol-5-yl)-1,3,4-thiadiazol-2-amine], the IC50 in test [1] (setting [3]) amounted to 1.14 µM; in test [2] (Pim-2 enzyme assay) it was 1.95 µM.

On to `CC(C)Nc1nnc(-c2ccc3[nH]cc(-c4cccc(C(=O)NC5CC5)n4)c3c2)o1` [Example 294, N-cyclopropyl-6-(5-(5-((1-methylethyl)amino)-1,3,4-oxadiazol-2-yl)-1H-indol-3-yl)-2-pyridinecarboxamide], for which the IC50 in test [1] (setting [4]) stood at 0.664 µM.

In the case of `CNC(=O)c1ccc(-c2c[nH]c3ccc(-c4nnc(NC(C)C)o4)cc23)nc1` [Example 295, N-methyl-6-(5-(5-((1-methylethyl)amino)-1,3,4-oxadiazol-2-yl)-1H-indol-3-yl)-3-pyridinecarboxamide], the IC50 in test [1] (setting [4]) turned out to be 0.578 µM.

For the molecule `CC(C)Nc1nnc(-c2ccc3[nH]cc(-c4cc(C(=O)N(C)C)ccc4F)c3c2)o1` [Example 302, 4-fluoro-N,N-dimethyl-3-(5-(5-((1-methylethyl)amino)-1,3,4-oxadiazol-2-yl)-1H-indol-3-yl)benzamide], the IC50 in test [1] (setting [4]) was determined as 0.291 µM.

On to `CC(C)Nc1nnc(-c2ccc3[nH]cc(-c4ccc(C(N)=O)cn4)c3c2)o1` [Example 303, 6-(5-(5-((1-methylethyl)amino)-1,3,4-oxadiazol-2-yl)-1H-indol-3-yl)-3-pyridinecarboxamide], for which, in test [1] (setting [4]), the IC50 is 0.268 µM.
